In ChEMBL document CHEMBL1806455, “Synthesis, activity and pharmacokinetics of novel antibacterial 15-membered ring macrolones” (Eur J Med Chem, 2011):
In brackets after ≈: the same amount, converted by molar mass.

How the values were obtained:
Assay type in all cases: functional
Streptococcus pneumoniae [1] = assay: Antibacterial activity against inducible macrolide-resistant, constitutive lincosamide, streptogramin-resistant Streptococcus pneumoniae 134 GR M by broth microdilution method
Staphylococcus aureus [2] = assay: Antibacterial activity against erythromycin-sensitive Staphylococcus aureus ATCC 13709 by broth microdilution method
Streptococcus pyogenes [3] = assay: Antibacterial activity against inducible macrolide-lincosamide-streptogramin B resistant Streptococcus pyogenes Finland 11 by broth microdilution method
Staphylococcus aureus [4] = assay: Antibacterial activity against inducible macrolide-lincosamide-streptogramin B resistant Staphylococcus aureus 90256 by broth microdilution method
Streptococcus pyogenes [5] = assay: Antibacterial activity against efflux-mediated macrolide-resistance Streptococcus pyogenes 2 Finland by broth microdilution method
Staphylococcus aureus [6] = assay: Antibacterial activity against efflux-mediated macrolide-resistant Staphylococcus aureus PK1 by broth microdilution method
Streptococcus pneumoniae [7] = assay: Antibacterial activity against constitutive macrolide, lincosamide, streptogramin-resistant Streptococcus pneumoniae 58 spain by broth microdilution method
Streptococcus pneumoniae [8] = assay: Antibacterial activity against efflux-mediated macrolide-resistant Streptococcus pneumoniae Ci137 by broth microdilution method
Streptococcus pneumoniae [9] = assay: Antibacterial activity against erythromycin-sensitive Streptococcus pneumoniae SP030 by broth microdilution method
Streptococcus pyogenes [10] = assay: Antibacterial activity against erythromycin-sensitive Streptococcus pyogenes 3565 by broth microdilution method
Streptococcus pyogenes [11] = assay: Antibacterial activity against macrolide, lincosamide, streptogramin-resistant Streptococcus pyogenes 166 GR-Micro by broth microdilution method
Moraxella catarrhalis = assay: Antibacterial activity against Moraxella catarrhalis ATCC 23246 by broth microdilution method
Staphylococcus aureus [12] = assay: Antibacterial activity against constitutive macrolide, lincosamide, streptogramin-resistant Staphylococcus aureus PK2 by broth microdilution method
Haemophilus influenzae = assay: Antibacterial activity against Haemophilus influenzae ATCC 49247 by broth microdilution method

SMILES | MIC (Streptococcus pneumoniae [1]) | MIC (Staphylococcus aureus [2]) | MIC (Streptococcus pyogenes [3]) | MIC (Staphylococcus aureus [4]) | MIC (Streptococcus pyogenes [5]) | MIC (Staphylococcus aureus [6]) | MIC (Streptococcus pneumoniae [7]) | MIC (Streptococcus pneumoniae [8]) | MIC (Streptococcus pneumoniae [9]) | MIC (Streptococcus pyogenes [10]) | MIC (Streptococcus pyogenes [11]) | MIC (Moraxella catarrhalis) | MIC (Staphylococcus aureus [12]) | MIC (Haemophilus influenzae)
CC[C@H]1OC(=O)[C@H](C)[C@@H](O[C@H]2C[C@@](C)(OC)[C@@H](OC(=O)CCOCCNc3cc4c(=O)c(C(=O)OCOC(=O)C(C)(C)C)cn(C5CC5)c4cc3Cl)[C@H](C)O2)[C@H](C)[C@@H](O[C@@H]2O[C@H](C)C[C@H](N(C)C)[C@H]2O)[C@](C)(O)C[C@@H](C)CN(C)[C@H](C)[C@@H](O)[C@]1(C)O | ≤ 0.125 µg/mL | 1 µg/mL (≈ 0.806 µM) | ≤ 0.125 µg/mL | 4 µg/mL (≈ 3.23 µM) | ≤ 0.125 µg/mL | 2 µg/mL (≈ 1.61 µM) | 0.5 µg/mL (≈ 0.403 µM) | ≤ 0.125 µg/mL | ≤ 0.125 µg/mL | ≤ 0.125 µg/mL | ≤ 0.125 µg/mL | 2 µg/mL (≈ 1.61 µM) | > 64 µg/mL | 1 µg/mL (≈ 0.806 µM)
CC[C@H]1OC(=O)[C@H](C)[C@@H](O[C@H]2C[C@@](C)(OC)[C@@H](OC(=O)CCOCCOc3ccc4c(c3)c(=O)c(C(=O)OC(C)C)cn4C3CC3)[C@H](C)O2)[C@H](C)[C@@H](O[C@@H]2O[C@H](C)C[C@H](N(C)C)[C@H]2O)[C@](C)(O)C[C@@H](C)CN(C)[C@H](C)[C@@H](O)[C@]1(C)O | ≤ 0.125 µg/mL | 1 µg/mL (≈ 0.882 µM) | ≤ 0.125 µg/mL | 32 µg/mL (≈ 28.2 µM) | ≤ 0.125 µg/mL | 16 µg/mL (≈ 14.1 µM) | ≤ 0.125 µg/mL | ≤ 0.125 µg/mL | ≤ 0.125 µg/mL | ≤ 0.125 µg/mL | ≤ 0.125 µg/mL | 2 µg/mL (≈ 1.76 µM) | > 64 µg/mL | 4 µg/mL (≈ 3.53 µM)
CC[C@H]1OC(=O)[C@H](C)[C@@H](O[C@H]2C[C@@](C)(OC)[C@@H](OC(=O)CCOCCOCCNc3cc4c(=O)c(C(=O)O)cn(CC)c4cc3Cl)[C@H](C)O2)[C@H](C)[C@@H](O[C@@H]2O[C@H](C)C[C@H](N(C)C)[C@H]2O)[C@](C)(O)C[C@@H](C)CN(C)[C@H](C)[C@@H](O)[C@]1(C)O | ≤ 0.125 µg/mL | ≤ 0.125 µg/mL | ≤ 0.125 µg/mL | ≤ 0.125 µg/mL | ≤ 0.125 µg/mL | ≤ 0.125 µg/mL | ≤ 0.125 µg/mL | ≤ 0.125 µg/mL | ≤ 0.125 µg/mL | ≤ 0.125 µg/mL | 0.25 µg/mL (≈ 0.216 µM) | 0.5 µg/mL (≈ 0.432 µM) | 16 µg/mL (≈ 13.8 µM) | 1 µg/mL (≈ 0.864 µM)
CCCOC(=O)c1cn(C2CC2)c2ccc(NCCOCCC(=O)O[C@H]3[C@H](C)O[C@@H](O[C@H]4[C@H](C)[C@@H](O[C@@H]5O[C@H](C)C[C@H](N(C)C)[C@H]5O)[C@](C)(O)C[C@@H](C)CN(C)[C@H](C)[C@@H](O)[C@](C)(O)[C@@H](CC)OC(=O)[C@@H]4C)C[C@@]3(C)OC)cc2c1=O | ≤ 0.125 µg/mL | 0.5 µg/mL (≈ 0.441 µM) | ≤ 0.125 µg/mL | 4 µg/mL (≈ 3.53 µM) | ≤ 0.125 µg/mL | 2 µg/mL (≈ 1.76 µM) | ≤ 0.125 µg/mL | ≤ 0.125 µg/mL | ≤ 0.125 µg/mL | ≤ 0.125 µg/mL | ≤ 0.125 µg/mL |  | > 64 µg/mL | 2 µg/mL (≈ 1.76 µM)
CC[C@H]1OC(=O)[C@H](C)[C@@H](O[C@H]2C[C@@](C)(OC)[C@@H](OC(=O)CCOCCOc3ccc4c(c3)c(=O)c(C(=O)OCC(C)=O)cn4C3CC3)[C@H](C)O2)[C@H](C)[C@@H](O[C@@H]2O[C@H](C)C[C@H](N(C)C)[C@H]2O)[C@](C)(O)C[C@@H](C)CN(C)[C@H](C)[C@@H](O)[C@]1(C)O | 0.25 µg/mL (≈ 0.218 µM) | 0.5 µg/mL (≈ 0.435 µM) | ≤ 0.125 µg/mL | 2 µg/mL (≈ 1.74 µM) | ≤ 0.125 µg/mL | 1 µg/mL (≈ 0.871 µM) | 0.5 µg/mL (≈ 0.435 µM) | 0.25 µg/mL (≈ 0.218 µM) | ≤ 0.125 µg/mL | ≤ 0.125 µg/mL | ≤ 0.125 µg/mL | 1 µg/mL (≈ 0.871 µM) | 64 µg/mL (≈ 55.7 µM) | 2 µg/mL (≈ 1.74 µM)
CC[C@H]1OC(=O)[C@H](C)[C@@H](O[C@H]2C[C@@](C)(OC)[C@@H](OC(=O)CCOCCOCCNc3cc4c(=O)c(C(=O)O)cn(C(C)C)c4cc3Cl)[C@H](C)O2)[C@H](C)[C@@H](O[C@@H]2O[C@H](C)C[C@H](N(C)C)[C@H]2O)[C@](C)(O)C[C@@H](C)CN(C)[C@H](C)[C@@H](O)[C@]1(C)O | 0.25 µg/mL (≈ 0.213 µM) | ≤ 0.125 µg/mL | ≤ 0.125 µg/mL | 0.25 µg/mL (≈ 0.213 µM) | ≤ 0.125 µg/mL | ≤ 0.125 µg/mL | ≤ 0.125 µg/mL | ≤ 0.125 µg/mL | ≤ 0.125 µg/mL | ≤ 0.125 µg/mL | 1 µg/mL (≈ 0.853 µM) | 1 µg/mL (≈ 0.853 µM) | 64 µg/mL (≈ 54.6 µM) | 1 µg/mL (≈ 0.853 µM)
CC[C@H]1OC(=O)[C@H](C)[C@@H](O[C@H]2C[C@@](C)(OC)[C@@H](OC(=O)CCOCCNc3ccc4c(c3)c(=O)c(C(=O)O)cn4C3CC3)[C@H](C)O2)[C@H](C)[C@@H](O[C@@H]2O[C@H](C)C[C@H](N(C)C)[C@H]2O)[C@](C)(O)C[C@@H](C)CN(C)[C@H](C)[C@@H](O)[C@]1(C)O | 0.25 µg/mL (≈ 0.229 µM) | 0.5 µg/mL (≈ 0.458 µM) | ≤ 0.125 µg/mL | 0.5 µg/mL (≈ 0.458 µM) | ≤ 0.125 µg/mL | 1 µg/mL (≈ 0.916 µM) | ≤ 0.125 µg/mL | ≤ 0.125 µg/mL | ≤ 0.125 µg/mL | ≤ 0.125 µg/mL | ≤ 0.125 µg/mL | 0.5 µg/mL (≈ 0.458 µM) | 32 µg/mL (≈ 29.3 µM) | 1 µg/mL (≈ 0.916 µM)
CCCn1cc(C(=O)O)c(=O)c2cc(NCCOCCOCCC(=O)O[C@H]3[C@H](C)O[C@@H](O[C@H]4[C@H](C)[C@@H](O[C@@H]5O[C@H](C)C[C@H](N(C)C)[C@H]5O)[C@](C)(O)C[C@@H](C)CN(C)[C@H](C)[C@@H](O)[C@](C)(O)[C@@H](CC)OC(=O)[C@@H]4C)C[C@@]3(C)OC)c(Cl)cc21 | 1 µg/mL (≈ 0.853 µM) | 0.25 µg/mL (≈ 0.213 µM) | ≤ 0.125 µg/mL | 32 µg/mL (≈ 27.3 µM) | ≤ 0.125 µg/mL | 0.25 µg/mL (≈ 0.213 µM) | ≤ 0.125 µg/mL | ≤ 0.125 µg/mL | ≤ 0.125 µg/mL | ≤ 0.125 µg/mL | 1 µg/mL (≈ 0.853 µM) | 0.5 µg/mL (≈ 0.427 µM) | > 64 µg/mL | 4 µg/mL (≈ 3.41 µM)
CC[C@H]1OC(=O)[C@H](C)[C@@H](O[C@H]2C[C@@](C)(OC)[C@@H](OC(=O)CCOCCNc3cc4c(=O)c(C(=O)OC(C)C)cn(C5CC5)c4cc3Cl)[C@H](C)O2)[C@H](C)[C@@H](O[C@@H]2O[C@H](C)C[C@H](N(C)C)[C@H]2O)[C@](C)(O)C[C@@H](C)CN(C)[C@H](C)[C@@H](O)[C@]1(C)O | ≤ 0.125 µg/mL | 0.5 µg/mL (≈ 0.428 µM) | ≤ 0.125 µg/mL | 2 µg/mL (≈ 1.71 µM) | ≤ 0.125 µg/mL | 2 µg/mL (≈ 1.71 µM) | ≤ 0.125 µg/mL | ≤ 0.125 µg/mL | ≤ 0.125 µg/mL | ≤ 0.125 µg/mL | ≤ 0.125 µg/mL |  | > 64 µg/mL | 2 µg/mL (≈ 1.71 µM)
CCC(=O)CNC(=O)COC(=O)c1cn(C2CC2)c2ccc(NCCOCCC(=O)O[C@H]3[C@H](C)O[C@@H](O[C@H]4[C@H](C)[C@@H](O[C@@H]5O[C@H](C)C[C@H](N(C)C)[C@H]5O)[C@](C)(O)C[C@@H](C)CN(C)[C@H](C)[C@@H](O)[C@](C)(O)[C@@H](CC)OC(=O)[C@@H]4C)C[C@@]3(C)OC)cc2c1=O | ≤ 0.125 µg/mL | 1 µg/mL (≈ 0.821 µM) | ≤ 0.125 µg/mL | 16 µg/mL (≈ 13.1 µM) | ≤ 0.125 µg/mL | 8 µg/mL (≈ 6.57 µM) | ≤ 0.125 µg/mL | ≤ 0.125 µg/mL | ≤ 0.125 µg/mL | ≤ 0.125 µg/mL | ≤ 0.125 µg/mL |  | > 64 µg/mL | 4 µg/mL (≈ 3.28 µM)
